Experimental data published in patent US20100104980A1, “LITHOGRAPHIC PRINTING PLATE PRECURSOR” (Agfa Graphics NV, priority 2007, published 2010).

Key:
[1] = Solubility in methylethylketone (MEK) measured at 20° C.; assay type: physicochemical
Experimental: The symmetric sensitizers SS-01 to SS-06 are given in Table 1 together with their solubility in methylethylketone (S (MEK)) measured at 20° C.

[2] = Solubility in 1-methoxy-2-propanol (MOP) at 80° C., Lasentec FBRM technology; assay type: physicochemical; settings: solubility in 1-methoxy-2-propanol at 80° C.; from curve fitting of experimental data
Experimental: (§1) In the present application the MetaStable Zone of solutions of a sensitizer and/or a mixture of sensitizers were measured with Lasentec® FBRM® technology, from Mettler Toledo. In this experimental set up, a Lasentec® Probe is used in an automated Labmax® 2 litre reactor, both from Mettler Toledo. In a typical investigation, the solution is cooled at a controlled rate (° C./min.) At a certain temperature, the probe detects nucleation and holds the solution at that temperature as crystallization proceeds. After completion of the crystallization, the solution is subjected to a controlled heating (° C./min) until the probe detects the temperature at which dissolution of the crystals is nearly completed. Again, the solution is kept at that temperature until all crystals are dissolved. Such cooling and heating cycli are performed for different concentrations of the solution. All actions, i.e. performing the cooling and heating cycli, dilution of the solution, storage and analysis of the data are performed automatically by the experimental set up used.
(§2) All investigations were performed on a sensitizer solution in 1-methoxy-2-propanol, since this typical coating solvent has a high boiling point (120° C.) and, as described above, will probably determine the crystallization behaviour at the end of the drying step of the photopolymerizable coating.
(§3) The obtained data for each investigated solution of a sensitizer or a mixture of sensitizers may be represented as in FIG. 1. In FIG. 1, curve S is the solubility curve and curve N the nucleation curve. These curves border three regions characterizing the solution as a function of concentration and temperature: the UnSaturated Zone (USZ), a stable zone wherein the solution is unsaturated (sensitizer is completely dissolved); an Unstable Zone (UZ), wherein crystallization occurs; and a MetaStable Zone (MSZ) wherein the solution is supersaturated but wherein no crystallization occurs.
(§4) The suspension was stirred at 350 rpm and heated until complete dissolution of all sensitizers. All following actions were automatically performed by the experimental set up used. The experimental set up constituted a Labmax® 2 liter automated lab reactor equipped with Lasentec® Probe and the Lasentec® D600 hardware, all distributed by Mettler Toledo. The Lasentec® FBRM® technology enables the detection of nucleation and dissolution temperatures of a solution. FBRM® stands for Focused Beam Reflectance Measurement. The Lasentec® probe measures the number and the average diameter of the particles in the suspension (the laser of the Lasentec® probe continuously scans, with a linear scan speed of 2 m/s, a region of the suspension; the laser light is reflected by the particles residing in the scanned region).
The 40 percent by weight solution was cooled at 0.2° C./minute. Upon detection of nucleation, i.e. when the Lasentec® FBRM® technology detects more than 800 particles with an average diameter of 1 to 20 μm, the so called ‘fines’ region, the mixture was kept at the attained temperature during 0.5 hour as crystallization proceeds. Upon completion of the crystallization, the mixture was heated at 0.2° C./minute. Upon detection of solubilization, i.e. when the Lasentec® FBRM® technology detects less than 30 particles with an average particle diameter of 20 to 50 μm, the so called ‘coarses’ region, the temperature was kept at the attained temperature during 0.5 hour until completion of the solubilization. […]

[3] = MetaStable Zone Width (MSZW) in 1-methoxy-2-propanol at 80° C., Lasentec FBRM technology; assay type: physicochemical; settings: cooling and heating rate 0.2° C./min, from curve fitting
Experimental: as §1, §2, §3
The MetaStable Zone Width (MSZW), expressed in ° C., at a given temperature, is the width of the Metastable Zone (MSZ) starting at the curve S at that given temperature. Since the MSZW is dependent on the cooling and heating rates, these rates were identical for all solutions investigated, i.e. 0.2° C./min. If the cooling rate would be indefinitely slow, the nucleation curve would practically coincide with the solubility curve and no MetaStable Zone would be detected.
as §4
The 40 percent by weight solution was cooled at 0.2° C./minute. […]

| SMILES | melting point [°C] | S (MEK) [1] [wt %] | S (MOP) 80° C. [2] [wt. %] | MSZW 80° C. [3] [°C] |
| --- | --- | --- | --- | --- |
| CCC(C)Oc1c(OC)cc(/C=C/c2ccc(/C=C/c3cc(OC)c(OC4CCCCC4)c(OC)c3)cc2)cc1OC (stereo not drawn) [AS-03] | 165 | – | – | – |
| CCCCC(CC)COc1c(OC)cc(/C=C/c2ccc(/C=C/c3cc(OC)c(OC(C)CC)c(OC)c3)cc2)cc1OC (stereo not drawn) [AS-01] | 81 | – | – | – |
| CCC(C)Oc1c(OC)cc(/C=C/c2ccc(/C=C/c3cc(OC)c(OC4CCCC4)c(OC)c3)cc2)cc1OC (stereo not drawn) [AS-04] | 153 | – | – | – |
| CCC(C)Oc1c(OC)cc(/C=C/c2ccc(/C=C/c3cc(OC)c(OC(CC)CC)c(OC)c3)cc2)cc1OC (stereo not drawn) [AS-02] | 155 | – | – | – |
| CCC(C)Oc1c(OC)cc(/C=C/c2ccc(/C=C/c3cc(OC)c(OCCO)c(OC)c3)cc2)cc1OC (stereo not drawn) [AS-05] | 137 | – | – | – |

The remaining lines, values ahead:

| melting point [°C] | S (MEK) [1] [wt %] | S (MOP) 80° C. [2] [wt. %] | MSZW 80° C. [3] [°C] | SMILES |
| --- | --- | --- | --- | --- |
| – | 9.64 | 6.14 | 3.6 | CCC(CC)Oc1c(OC)cc(/C=C/c2ccc(/C=C/c3cc(OC)c(OC(CC)CC)c(OC)c3)cc2)cc1OC [SS-05] |
| – | 23.21 | – | – | CCCCC(CC)COc1c(OC)cc(/C=C/c2ccc(/C=C/c3cc(OC)c(OCC(CC)CCCC)c(OC)c3)cc2)cc1OC (stereo not drawn) [SS-06] |
| – | 8.71 | 22.76 | 1.6 | CCC(C)Oc1c(OC)cc(/C=C/c2ccc(/C=C/c3cc(OC)c(OC(C)CC)c(OC)c3)cc2)cc1OC (stereo not drawn) [SS-04] |
| – | 4.75 | 10.78 | 4.5 | CCCOc1c(OC)cc(/C=C/c2ccc(/C=C/c3cc(OC)c(OCCC)c(OC)c3)cc2)cc1OC [SS-02] |
| – | 0.89 | 4.66 | 4.5 | COc1cc(/C=C/c2ccc(/C=C/c3cc(OC)c(OC)c(OC)c3)cc2)cc(OC)c1OC [SS-01] |
| – | 0.45 | 7.31 | 1.7 | COc1cc(/C=C/c2ccc(/C=C/c3cc(OC)c(OC(C)C)c(OC)c3)cc2)cc(OC)c1OC(C)C [SS-03] |
